Data: patent US7897723B2, “ErbB receptor-derived peptide fragments” (Københavns Universitet, priority 2006, dated 2011)

Columns and labels:
[1] = test system: HN5 cells; experiment: Cell viability / cell growth (MTS staining); assay type: cell-based, human; settings: HN5 cells
Experimental: 2000 HN5 cells per well were seeded in a 96 well plate in full medium (containing 10% fetal calf serum) or starvation medium (serum-free). After 12 hours of incubation, peptides or ErbB1 kinase inhibitor PD153035 (Calbiochem) and/or EGF (Sigma-Aldrich) were added in the concentrations indicated in figures. Cells were grown for 72 hours, then 20 μl MTS One Solution Reagent (Promega, Madison, Wis., USA) were added per 100 μl culture medium in each well, and the plates were incubated for 1-2 hours at 37° C., followed by absorbance measurements at 490 nm.

[2] = target: T1, ErbB1 (Homo sapiens, UniProt P00533); experiment: ErbB receptor phosphorylation, NR6 wtEGFR cells; assay type: cell-based; design: expressed in transfected cells; host or cells: NR6 fibroblastoid cells (NR6 wtEGFR); settings: 10 ng/ml EGF for 10 min, immunoblotting (FIG. 7)
Experimental: The cells employed for this assay were NR6 wtEGFR cells, which are fibroblastoid cells stably transfected with ErbB1, and human head and neck tumor-derived HN5 cell. Confluent NR6 wtEGFR or HN5 cells were treated with peptide in the indicated concentrations for 30 min, then stimulated with 10 ng/ml EGF (Sigma-Aldrich, St. Louis, Mo., USA) for 10 min. Cells were lysed in lysis buffer (1% (v/v) Triton X-100, 150 mM NaCl, 10 mM Tris pH 7.4, 1 mM EDTA, 1 mM EGTA, 0.5% (v/v) NP-40, phosphatase inhibitors (Phosphatase Inhibitor Cocktail Set II from Calbiochem, La Jolla, Calif., USA) and protease inhibitors (Complete™ Protease Inhibitor Cocktail from Boehringer Mannheim Biochemica, Mannheim, Germany)), and cleared lysate samples containing equal amounts of total protein (as determined by a bicinchoninic acid assay (Pierce, Rockford, Ill., USA)) were subjected in duplicates to 4-12% SDS-PAGE and immunoblotting. […] The intensity of bands was quantified using densitometric analysis employing the software package GeneTools (Syngene, Cambridge, UK).
NR6 wtEGFR cells (a fibroblastoid cell line stably transfected with ErbB1) were treated with peptide in the indicated concentrations for […], then stimulated with 10 ng/ml EGF for 10 min. […] The intensity of bands was quantified using densitometric analysis employing the software package GeneTools (Syngene, Cambridge, UK).

[3] = target: T1, ErbB1; experiment: ErbB receptor phosphorylation, HN5 cells; assay type: cell-based; design: the ErbB1 overexpressing human head and neck cancer cell line HN5; endogenous in cells; host or cells: HN5 human head and neck cancer cells; settings: 100 μM peptide for 30 min, 10 ng/ml EGF for 10 min (FIG. 8)
Experimental: The cells employed for this assay were NR6 wtEGFR cells, which are fibroblastoid cells stably transfected with ErbB1, and human head and neck tumor-derived HN5 cell. Confluent NR6 wtEGFR or HN5 cells were treated with peptide in the indicated concentrations for 30 min, then stimulated with 10 ng/ml EGF (Sigma-Aldrich, St. Louis, Mo., USA) for 10 min. Cells were lysed in lysis buffer (1% (v/v) Triton X-100, 150 mM NaCl, 10 mM Tris pH 7.4, 1 mM EDTA, 1 mM EGTA, 0.5% (v/v) NP-40, phosphatase inhibitors (Phosphatase Inhibitor Cocktail Set II from Calbiochem, La Jolla, Calif., USA) and protease inhibitors (Complete™ Protease Inhibitor Cocktail from Boehringer Mannheim Biochemica, Mannheim, Germany)), and cleared lysate samples containing equal amounts of total protein (as determined by a bicinchoninic acid assay (Pierce, Rockford, Ill., USA)) were subjected in duplicates to 4-12% SDS-PAGE and immunoblotting. One membrane was probed with anti-phospho-EGFR (phosphotyrosine 1068) antibody (Cell Signaling Technology, Danvers, Mass., USA), the other with anti-EGFR antibody (Cell Signaling Technology). Detection was carried out using horseradish peroxidase (HRP)-conjugated secondary antibodies (DAKO, Denmark) and enhanced chemiluminiscence (Pierce). The intensity of bands was quantified using densitometric analysis employing the software package GeneTools (Syngene, Cambridge, UK).

[4] = test system: L929 cells; experiment: Cell motility assay (time-lapse video recording); assay type: cell-based
Experimental: Subconfluent L929 cells were infected with Ad5.CMV-GFP virus according to the manufacturer instruction (Clontech). 24 h after transfection, cells were seeded at a density of 4×10^3 cells/cm^2 and grown for 24 h. Cells were then treated with the indicated concentration of peptide and EGF, and cell positions were recorded every 15 min at 25 fixed positions in each culture for 4 hours using automatic time-lapse video recording. The workstation employed comprised an Eclipse TE300 inverted microscope (Nikon, Japan) equipped with a heated, movable, computer controlled microscope stage. Recordings were performed using the PRIGRA software (developed at the Protein Laboratory, Copenhagen, Denmark).
Analysis of individual cell motility was performed using an automatic procedure for single cell motility evaluation. Briefly, automatic marking of cell positions in consecutive video frames was used for determination of the migration tracks of the cells during the whole recording period. The obtained cell coordinate data were used for the calculation of motility parameters by means of the ‘complex overlapping’ method. Briefly, the mean squared cell displacement, ? d^2 ? , was calculated as the Euclidean distance between two points corresponding to the initial and final position of the cell. The rate of diffusion, R, was calculated by fitting the curve of ? d^2 ? plotted against time to the equation ? d^2(ti) ? =R(τ−P(1−e^(−τ/P))), • where ti is the time interval of interest, τ is the time interval between observations, i.e. 15 min, and P is the persistence time in direction (28). The mean cell speed, Sτ, was calculated as the mean cell displacement taking place between discrete observations ( ? dτ ? ) divided by the time interval between discrete observations (τ), according to the equation:
[formula] • The mean cell-path-length, ? L ? , for a sample of a population of cells at a given time of observation, was calculated as:
[formula] • The locomotive index, LI, was calculated as the ratio of the mean cell displacement and the mean cell-path-length:
[formula] LI was used as a measure of the directional persistence of the cells.

[5] = test system: L929 cells; experiment: Cell proliferation (BrdU incorporation); assay type: cell-based
Experimental: 2000 L929 cells (ECACC no: 85011425) per well were seeded in a 96 well plate in full medium (containing 10% foetal calf serum) or starvation medium (serum-free). Peptides, ErbB1 kinase inhibitor PD153035 (Calbiochem), and EGF (Sigma-Aldrich) were added immediately after seeding of the cells (for experiments done in full serum) or after 8 hours of incubation (for experiments done in starvation medium) in the concentrations indicated in figures. Cells were grown for 6 hours, then 10 μM bromodeoxyuridine (BrdU) was added, and cells were grown for additional 18 hours. Then, BrdU incorporation in the cells was assayed using the Biotrak ELISA System, version 2 from Amersham Biosciences Europe GmbH (Buckinghamshire, UK) following the manufacturer's protocol.

LVYNKLTFQLEPNPHTK (Inherbin 3 peptide) [Inherbin3]
effect on serum-induced cell growth ([1]; full medium containing 10% serum (FIG. 6B)): inhibited serum-induced cell growth
inhibition of the EGF-induced increase in cell growth ([1]; starvation medium, EGF-stimulated, 3 days, MTS (FIG. 6A)): ~35%
effect on basal cell growth ([1]; starvation medium, without EGF-stimulation (FIG. 6A)): no effect on the basal cell growth
effect on EGF-induced ErbB1 phosphorylation [2]: inhibited EGF-induced ErbB1 phosphorylation significantly
effect on EGF-induced ErbB1 phosphorylation [3]: significantly inhibited EGF-induced ErbB1 phosphorylation
effect on mean cell speed ([4]; L929 cells (FIG. 5C)): did not significantly affect the mean cell speed
effect on locomotive index, LI ([4]; L929 cells (FIG. 5D)): reflected the changes seen in rate of diffusion
effect on rate of diffusion, R ([4]; L929 cells, absence of EGF, peptide dose 10 μM (FIG. 5B)): stimulated the rate of diffusion to the level of the EGF-induced response
effect on EGF-induced increase in rate of diffusion, R ([4]; L929 cells, with EGF (FIG. 5B)): significantly inhibited
effect on EGF-induced increase in rate of diffusion, R ([4]; L929 cells, with EGF, peptide dose 40 μM (FIG. 5B)): completely blocked the EGF-induced increase in rate of diffusion
effect on EGF-induced cell proliferation ([5]; L929 cells, full medium, BrdU incorporation (FIG. 2, FIG. 3)): able to inhibit EGF-induced cell proliferation significantly
inhibition of the EGF-induced effects ([5]; summary for cell proliferation, cell motility and ErbB1 phosphorylation in cells with a lower ErbB1 expression level): ~100%
